# Measurements taken from patent US20230287048A1, “COMPOSITION AND KIT FOR REMOVING LIPOPOLYSACCHARIDE” (HLB SCIENCE INC., priority 2020, published 2023).
# Where a SMILES comes first, the peptide text is derived from it. Where no end group is shown, it is not given here. [ ]: non-standard residue; d: D form.
# Key:
# [1] = LPS removal rates of reagents prepared with various peptides; conditions: for Removal Rate: peptide conjugated to CNBr-activated agarose
# Procedure: To confirm an LPS removal rate by preparing a reagent for removing LPS using peptides other than FP12-NH2, LPS removal rates were compared using the peptides listed in Table 11.
# Reagents for removing LPS were prepared in one dose by the method of Example 2-2 for each peptide.
# More specifically, the reagent for removing LPS was aliquoted by Lot at 2 mL into 5 mL tubes. After centrifugation, the supernatant was removed with a syringe, 2 mL of PBS was added and mixed up and down and centrifuged. […] The mixture was stirred for 2 hours at room temperature. After centrifugation, the supernatant was transferred to a new tube.
# [2] = Binding affinity (Kd) between peptide and LPS by isothermal titration calorimeter (ITC); conditions: for Kd: 0.2 mM peptide in cell, 2 mM LPS in syringe, PBS, read-out: Kd (calculated by ITC)
# Procedure: FP1 is denoted as wild type (WT), and peptides having point mutations for various parts in WT were prepared (FP3, FP5, FP6, and FP9). To increase the interaction with LPS in the residue sequence of FP3, peptides were designed based on an FP3 and LPS-binding model (FP12-NH2 and FP13-NH2), and non-natural amino acid and amino acid isomers (allomeric D-type amino acids) were additionally introduced, thereby designing peptides (allD FP12-NH2, allD FP13-NH2, allD FP-13-9a, allD FP-13-9w, allD FP-13-9k, and allD FP13-NH2 (AcOH)). In addition, an N-terminal PEGylated peptide (PEG-allD FP13-NH2(AcOH)) was additionally designed and synthesized by Anygen Co. Ltd., and then supplied. Using each of the provided peptides, lipopolysaccharide (LPS), and an isothermal titration calorimeter (ITC) for measuring binding affinity (Kd), binding affinity with LPS was confirmed.
# Specifically, a method of analyzing binding affinity (Kd) between a peptide and LPS is as follows.
# The binding affinity was measured using Malvern MicroCal PEAQ-ITC cell equipment, and to confirm the interaction with LPS, pre-treatment was performed as follows. The volume and shape of a cell sample were 300 μL, coin-shaped, and fixed-in-place; and the syringe rotation rate was 1,200 rpm; and temperatures were 30° C., 35° C., and 25° C.
# Before the test, LPS and the peptide were diluted with PBS in advance, thereby obtaining 2 mM LPS and a 0.2 mM peptide. 300 μL of the peptide was put into cells in an ITC device, which had been washed, and 40 μL of LPS was contained in a syringe. Measurement conditions for ITC (temperature, the number of injections) were set, the syringe was inserted into the cell, and the ITC measurement began. When the measurement was completed, the Kd values of LPS and the peptide were calculated through analysis.
Compound,"Removal Rate ([1]; feeding LPS 100,000 EU/ml)","LPS binding affinity compared with FP1 (wild type, WT) [2]",Kd [2],"Removal Rate ([1]; feeding LPS 10,000 EU/ml)","LPS removal rate, comparison of all polypeptides ([1]; peptides of Table 11 conjugated to CNBr-activated agarose)"
"CC(C)C[C@@H](NC(=O)[C@H](N)CCCNC(=N)N)C(=O)N[C@H](CCCNC(=N)N)C(=O)N[C@@H](C(=O)N[C@H](CCCCN)C(=O)N[C@H](CC(C)C)C(=O)N[C@H](CCCNC(=N)N)C(=O)N[C@H](CCCNC(=N)N)C(=O)N[C@H](Cc1ccc(O)cc1)C(=O)N[C@H](CC(C)C)C(=O)N[C@H](CCCNC(=N)N)C(N)=O)C(C)C [allD FP12-NH2, RLRVKLRRYLR-NH2] (H-[dR][dL][dR][dV][dK][dL][dR][dR][dY][dL][dR]-NH2; N-terminus assumed)",58.6%,the same as or higher than FP1,26.6 µM,,
"CC(C)C[C@@H](NC(=O)[C@H](N)CCCCN)C(=O)N[C@H](CCCNC(=N)N)C(=O)N[C@@H](C(=O)N[C@H](CCCCN)C(=O)N[C@H](CC(C)C)C(=O)N[C@H](CCCNC(=N)N)C(=O)N[C@H](CCCNC(=N)N)C(=O)N[C@H](Cc1ccc(O)cc1)C(=O)N[C@H](CC(C)C)C(=O)N[C@H](CCCNC(=N)N)C(N)=O)C(C)C [allD FP13-NH2, KLRVKLRRYLR-NH2] (H-[dK][dL][dR][dV][dK][dL][dR][dR][dY][dL][dR]-NH2; N-terminus assumed)",57.7%,the same as or higher than FP1,4.78 µM,,
"CC(C)C[C@@H](NC(=O)[C@H](N)CCCCN)C(=O)N[C@H](CCCNC(=N)N)C(=O)N[C@@H](C(=O)N[C@H](CCCCN)C(=O)N[C@H](CC(C)C)C(=O)N[C@H](CCCNC(=N)N)C(=O)N[C@H](CCCNC(=N)N)C(=O)N[C@H](CCCCN)C(=O)N[C@H](CC(C)C)C(=O)N[C@H](CCCNC(=N)N)C(N)=O)C(C)C [allD-FP-13-9k-NH2, Klrvklrrklr-NH2] (H-[dK][dL][dR][dV][dK][dL][dR][dR][dK][dL][dR]-NH2; N-terminus assumed)",,the same as or higher than FP1,1.99 µM,,
"CC(C)C[C@@H](NC(=O)[C@H](N)CCCCN)C(=O)N[C@H](CCCNC(=N)N)C(=O)N[C@@H](C(=O)N[C@H](CCCCN)C(=O)N[C@H](CC(C)C)C(=O)N[C@H](CCCNC(=N)N)C(=O)N[C@H](CCCNC(=N)N)C(=O)N[C@H](Cc1c[nH]c2ccccc12)C(=O)N[C@H](CC(C)C)C(=O)N[C@H](CCCNC(=N)N)C(N)=O)C(C)C [allD-FP-13-9w-NH2, Klrvklrrwlr-NH2] (H-[dK][dL][dR][dV][dK][dL][dR][dR][dW][dL][dR]-NH2; N-terminus assumed)",,the same as or higher than FP1,17.4 µM,,
"CC(C)C[C@@H](NC(=O)[C@H](N)CCCCN)C(=O)N[C@H](CCCNC(=N)N)C(=O)N[C@@H](C(=O)N[C@H](CCCCN)C(=O)N[C@H](CC(C)C)C(=O)N[C@H](CCCNC(=N)N)C(=O)N[C@H](CCCNC(=N)N)C(=O)N[C@H](Cc1ccc(O)cc1)C(=O)N[C@H](CC(C)C)C(=O)N[C@H](CCCNC(=N)N)C(N)=O)C(C)C [allD-FP-13-NH2 (AcOH), KLRVKLRRYLR-NH2] (H-[dK][dL][dR][dV][dK][dL][dR][dR][dY][dL][dR]-NH2; N-terminus assumed)",,the same as or higher than FP1,19.5 µM,,
"KLGVEAKRYLD [FP1(WT), KLGVEAKRYLD, reference compound]",,,238 µM,,
"KLGVEAKRYLR [FP3, KLGVEAKRYLR]",,the same as or higher than FP1,332 µM,,
"KLGVEALRYLD [FP9, KLGVEALRYLD]",,the same as or higher than FP1,326 µM,,
"KLRVKLRRYLR-NH2 [FP13-NH2, KLRVKLRRYLR-NH2]",,the same as or higher than FP1,118 µM,94.8%,
"LRLGVEAKRYLR [FP5, LRLGVEAKRYLR]",,the same as or higher than FP1,854 µM,,
"LRLGVELKRYLR [FP6, LRLGVELKRYLR]",,the same as or higher than FP1,11.1 µM,,
"RLRVKLRRYLR-NH2 [FP12-NH2, RLRVKLRRYLR-NH2]",79.4%,the same as or higher than FP1,0.242 µM,99.9%,the highest removal rate
